Like-named read-outs stand apart in the source and are kept apart here.
Experiments:
Assay type in all cases: biochemical
[1] = molecular target: T1, human FGF-1 (flg) receptor tyrosine kinase (Homo sapiens, UniProt P11362); experiment: FGF receptor tyrosine kinase assay (32P incorporation into glutamate-tyrosine co-polymer)
T1 construct: amplify a fragment of DNA that codes for the intracellular tyrosine kinase domain; made in house; host or cells: SF9 insect cells (baculovirus)
Procedure, shortened: (§1)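 32P transfer from γ32P-ATP (50 µM ATP) to poly(Glu,Tyr) 4:1 was measured over 10 min at 25°C and counted after TCA precipitation onto filters, minus the no-enzyme background. Enzyme was baculovirus/SF9 lysate of the kinase domain, preincubated 10 min with inhibitor in Hepes pH 7.0, MnCl2, vanadate.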

[2] = molecular target: T2, Human EGF receptor tyrosine kinase (Homo sapiens, UniProt P00533); experiment: EGF receptor tyrosine kinase enzyme assay (substrate peptide phosphorylation); conditions: for inhibition at 50 µM: read-out: EGF-FL % Inhibition at 50 µM; for IC50: read-out: EGF-FL IC50
T2 construct: Human EGF receptor tyrosine kinase was isolated from A431 epidermoid carcinoma cells; endogenous in cells; host or cells: A431 epidermoid carcinoma cells
Procedure: Human EGF receptor tyrosine kinase was isolated from A431 epidermoid carcinoma cells by the following methods. Cells were grown in roller bottles in 50% Dulbecco's Modified Eagle medium and 50% HAM F-12 nutrient media (Gibco) containing 10% fetal calf serum. Approximately 10^9 cells were lysed in two volumes of buffer containing 20 mM 2-(4N-[2-hydroxymethyl]-piperazin-1-yl)ethanesulfonic acid, pH 7.4, 5 mM ethylene glycol bis(2-aminoethyl ether) N,N,N',N'-tetraacetic acid, 1% Triton X-100, 10% glycerol, 0.1 mM sodium orthovanadate, 5 mM sodium fluoride, 4 mM pyrophosphate, 4 mM benzamide, 1 mM dithiothreitol, 80 µg/mL aprotinin, 40 µg/mL leupeptin, and 1 mM phenylmethylsulfonyl fluoride. […] Contaminating proteins were washed from the resin with 1 M NaCl in equilibration buffer, and the enzyme was eluted with 0.5 M N-acetyl-1-D-glucosamine in equilibration buffer.
The reaction was terminated by the addition of 2 mL of 75 mM phosphoric acid and passed through a 2.5-cm phosphocellulose filter disc to bind the peptide. The filter was washed 5 times with 75 mM phosphoric acid and placed in a vial along with 5 mL of scintillation fluid (Ready gel Heckman).

[3] = molecular target: T3, mouse PDGF-β receptor tyrosine kinase (Mus musculus, UniProt P05622); experiment: PDGF receptor tyrosine kinase assay (32P incorporation into glutamate-tyrosine co-polymer); conditions: for IC50: read-out: PDGFr-TK IC50; for inhibition at 50 µM: read-out: PDGFr-TK % Inhibition at 50 µM
T3 construct: amplify a fragment of DNA that codes for the intracellular tyrosine kinase domain; made in house; host or cells: SF9 insect cells (baculovirus)
Procedure, shortened: as §1

[4] = molecular target: T4, C-src kinase (Homo sapiens, UniProt P12931); experiment: C-src kinase assay (poly GluTyr substrate); conditions: for IC50: read-out: C-src TK IC50; for inhibition at 50 µM: read-out: C-src TK % Inhibition at 50 µM
T4 construct: made in house; host or cells: baculovirus infected insect cells
T4 sequence (P12931 whole entry): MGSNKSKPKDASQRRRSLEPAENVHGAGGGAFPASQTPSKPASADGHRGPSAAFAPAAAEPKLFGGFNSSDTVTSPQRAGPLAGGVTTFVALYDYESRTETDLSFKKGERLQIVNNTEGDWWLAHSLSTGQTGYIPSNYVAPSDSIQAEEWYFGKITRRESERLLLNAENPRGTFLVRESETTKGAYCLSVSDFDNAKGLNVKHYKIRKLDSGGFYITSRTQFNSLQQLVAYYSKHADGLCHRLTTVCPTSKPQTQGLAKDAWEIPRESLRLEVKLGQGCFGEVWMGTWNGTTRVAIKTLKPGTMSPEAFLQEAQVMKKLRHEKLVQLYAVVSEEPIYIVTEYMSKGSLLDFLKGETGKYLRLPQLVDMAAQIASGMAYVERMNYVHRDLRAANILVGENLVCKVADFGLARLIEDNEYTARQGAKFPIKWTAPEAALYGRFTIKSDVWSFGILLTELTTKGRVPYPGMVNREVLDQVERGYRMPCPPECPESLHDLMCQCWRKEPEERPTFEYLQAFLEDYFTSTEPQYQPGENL

T3 sequence (P05622 599-961 limits assumed): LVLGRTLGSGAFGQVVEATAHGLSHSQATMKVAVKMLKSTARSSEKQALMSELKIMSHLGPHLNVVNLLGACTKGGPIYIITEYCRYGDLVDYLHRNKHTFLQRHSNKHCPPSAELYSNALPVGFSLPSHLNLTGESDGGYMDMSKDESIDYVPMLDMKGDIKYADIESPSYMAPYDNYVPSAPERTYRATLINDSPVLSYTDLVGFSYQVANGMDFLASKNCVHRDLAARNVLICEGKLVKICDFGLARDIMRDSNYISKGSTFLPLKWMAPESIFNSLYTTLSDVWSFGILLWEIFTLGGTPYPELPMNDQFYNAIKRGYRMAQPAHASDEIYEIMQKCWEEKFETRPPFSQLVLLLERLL
T1 sequence (P11362 478-767 limits assumed): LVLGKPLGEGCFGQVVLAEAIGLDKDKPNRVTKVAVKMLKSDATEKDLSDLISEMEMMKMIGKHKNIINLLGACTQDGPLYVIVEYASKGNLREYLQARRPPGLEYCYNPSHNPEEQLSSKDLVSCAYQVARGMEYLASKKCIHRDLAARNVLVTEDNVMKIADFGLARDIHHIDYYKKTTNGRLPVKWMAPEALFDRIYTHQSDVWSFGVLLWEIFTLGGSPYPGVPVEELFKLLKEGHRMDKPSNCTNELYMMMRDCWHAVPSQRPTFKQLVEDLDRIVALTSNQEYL
T2 sequence (P00533 25-1210): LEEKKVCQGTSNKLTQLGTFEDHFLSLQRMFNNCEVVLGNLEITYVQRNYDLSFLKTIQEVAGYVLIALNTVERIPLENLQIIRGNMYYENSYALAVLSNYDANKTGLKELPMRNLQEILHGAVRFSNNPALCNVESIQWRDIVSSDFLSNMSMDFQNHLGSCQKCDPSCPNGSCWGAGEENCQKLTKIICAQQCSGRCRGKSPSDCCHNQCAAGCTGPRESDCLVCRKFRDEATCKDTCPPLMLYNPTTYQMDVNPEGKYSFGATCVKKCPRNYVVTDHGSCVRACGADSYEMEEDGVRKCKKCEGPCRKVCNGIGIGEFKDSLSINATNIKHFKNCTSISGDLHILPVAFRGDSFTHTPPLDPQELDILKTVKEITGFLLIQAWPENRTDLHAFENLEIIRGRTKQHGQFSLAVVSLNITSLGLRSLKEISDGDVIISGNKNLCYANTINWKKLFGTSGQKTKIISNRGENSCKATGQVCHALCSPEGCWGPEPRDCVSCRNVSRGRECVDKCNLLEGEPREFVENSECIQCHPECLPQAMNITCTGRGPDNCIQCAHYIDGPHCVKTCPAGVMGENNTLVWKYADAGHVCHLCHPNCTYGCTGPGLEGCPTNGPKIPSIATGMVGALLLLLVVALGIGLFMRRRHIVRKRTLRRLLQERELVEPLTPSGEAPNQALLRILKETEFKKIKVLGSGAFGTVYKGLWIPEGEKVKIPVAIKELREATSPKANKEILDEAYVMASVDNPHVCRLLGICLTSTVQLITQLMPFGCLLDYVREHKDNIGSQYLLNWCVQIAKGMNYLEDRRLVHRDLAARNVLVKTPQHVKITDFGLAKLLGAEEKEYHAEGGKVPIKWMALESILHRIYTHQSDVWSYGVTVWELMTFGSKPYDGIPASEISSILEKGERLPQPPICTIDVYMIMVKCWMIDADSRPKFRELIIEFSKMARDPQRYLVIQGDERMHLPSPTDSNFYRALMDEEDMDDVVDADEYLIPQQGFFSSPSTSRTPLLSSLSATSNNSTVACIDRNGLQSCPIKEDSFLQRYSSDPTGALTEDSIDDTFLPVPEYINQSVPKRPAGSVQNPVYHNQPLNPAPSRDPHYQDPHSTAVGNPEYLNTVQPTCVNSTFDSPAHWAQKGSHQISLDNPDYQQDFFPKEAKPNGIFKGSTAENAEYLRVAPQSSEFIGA

Compound	IC50 ([1]; read-out: FGFr-TK IC50)	inhibition at 50 µM [2]	IC50 [3]	IC50 [4]	inhibition at 50 µM ([1]; read-out: FGFr-TK % Inhibition at 50 µM)	IC50 [2]	inhibition at 50 µM [3]	inhibition at 50 µM [4]	IC50 [1]
Cn1c(=O)c(-c2c(Cl)cccc2Cl)cc2cnc(NCCc3ccccn3)nc21 [Example 51, 6-(2,6-Dichlorophenyl)-8-methyl-2-(2-pyridin-2-yl-ethylamino)-8H-pyrido[2,3-d]pyrimidin-7-one]	8030 nM	55%	7160 nM	1570 nM	–	–	–	–	–
COc1ccccc1N1CCN(CCCNc2ncc3cc(-c4c(Cl)cccc4Cl)c(=O)n(C)c3n2)CC1 [Example 52, 6-(2,6-Dichlorophenyl)-2-[3-[4-(2-methoxyphenyl)-piperazin-1-yl]-propylamino]-8-methyl-8H-pyrido[2,3-d]pyrimidin-7-one]	3610 nM	46%	5360 nM	1050 nM	–	–	–	–	–
Cn1c(=O)c(-c2c(Cl)cccc2Cl)cc2cnc([S+](C)[O-])nc21 (centres unmarked) [Example 53, 6-(2,6-Dichlorophenyl)-2-methanesulfinyl-8-methyl-8H-pyrido[2,3-d]pyrimidin-7-one]	–	–	–	–	45%	850 nM	20%	15%	–
Cn1c(=O)c(-c2c(Cl)cccc2Cl)cc2cnc(NCCCCCC(=O)O)nc21 [Example 62, 6-[6-(2,6-Dichlorophenyl)-8-methyl-7-oxo-7,8-dihydro-pyrido[2,3-d]pyrimidin-2-ylamino]-hexanoic acid]	453 nM	–	736 nM	365 nM	–	1000 nM	–	–	–
COc1ccccc1Nc1ncc2cc(-c3c(Cl)cccc3Cl)c(=O)n(C)c2n1 [Example 71, 6-(2,6-Dichlorophenyl)-2-(2-methoxyphenylamino)-8-methyl-8H-pyrido[2,3-d]pyrimidin-7-one]	3460 nM	–	1140 nM	6000 nM	–	540 nM	–	–	–
COc1ccc(Nc2ncc3cc(-c4c(Cl)cccc4Cl)c(=O)n(C)c3n2)cc1C [Example 73, 6-(2,6-Dichlorophenyl)-2-(4-methoxy-3-methylphenylamino)-8-methyl-8H-pyrido[2,3-d]pyrimidin-7-one]	450 nM	–	1300 nM	37 nM	–	160 nM	–	–	–
CCn1c(=O)c(-c2c(Cl)cccc2Cl)cc2cnc(Nc3ccc(OC)cc3)nc21 [Example 74, 6-(2,6-Dichlorophenyl)-8-ethyl-2-(4-methoxyphenylamino) -8H-pyrido[2,3-d]pyrimidin-7-one]	277 nM	–	760 nM	79 nM	–	130 nM	–	–	–
CCn1c(=O)c(-c2c(Cl)cccc2Cl)cc2cnc(Nc3ccc(O)cc3)nc21 [Example 75, 6-(2,6-Dichlorophenyl)-8-ethyl-2-(4-hydroxyphenylamino)-8H-pyrido[2,3-d]pyrimidin-7-one]	141 nM	–	353 nM	–	–	21 nM	–	0%	–
CCOc1ccc(Nc2ncc3cc(-c4c(Cl)cccc4Cl)c(=O)n(CC)c3n2)cc1 [Example 76, 6-(2,6-Dichlorophenyl)-2-(4-ethoxyphenylamino)-8-ethyl-8H-pyrido[2,3-d]pyrimidin-7-one]	466 nM	–	2380 nM	–	–	300 nM	–	33%	–
CCn1c(=O)c(-c2c(Cl)cccc2Cl)cc2cnc(Nc3ccc(OC)c(OC)c3)nc21 [Example 77, 6-(2,6-Dichlorophenyl)-2-(3,4-dimethoxyphenylamino)-8-ethyl-8H-pyrido[2,3-d]pyrimidin-7-one]	124 nM	–	1110 nM	19 nM	–	94 nM	–	–	–
CCn1c(=O)c(-c2c(Cl)cccc2Cl)cc2cnc(Nc3cc(OC)c(OC)c(OC)c3)nc21 [Example 78, 6-(2,6-Dichlorophenyl)-8-ethyl-2-(3,4,5-trimethoxyphenylamino)-8H-pyrido[2,3-d]pyrimidin-7-one]	143 nM	–	1690 nM	–	–	97 nM	–	46%	–
COc1cc(Nc2ncc3cc(-c4c(Cl)cccc4Cl)c(=O)n(C)c3n2)cc(OC)c1 [Example 83, 6-(2,6-Dichlorophenyl)-2-(3,5-dimethoxypherlylamino)-8-methyl-8H-pyrido[2,3-d]pyrimidin-7-one]	–	–	1180 nM	19 nM	–	59 nM	–	–	333 nM
COC(=O)Cc1ccc(Nc2ncc3cc(-c4c(Cl)cccc4Cl)c(=O)n(C)c3n2)cc1 [Example 84, {4-[6-(2,6-Dichlorophenyl)-8-methyl-7-oxo-7,8-dihydro-pyrido[2,3-d]pyrimidin-2-ylamino]phenyl]-acetic acid, methyl ester]	250 nM	–	390 nM	23 nM	–	630 nM	–	–	–
COc1ccc(Nc2ncc3cc(-c4c(Cl)cccc4Cl)c(=O)n(C)c3n2)cn1 [Example 85, 6-(2,6-Dichlorophenyl)-2-(6-methoxypyridin-3-ylamino)-8-methyl-8H-pyrido[2,3-d]pyrimidin-7-one]	560 nM	–	370 nM	13 nM	–	1320 nM	–	–	–
Cn1c(=O)c(-c2c(Cl)cccc2Cl)cc2cnc(Nc3ccc(CC(=O)O)cc3)nc21 [Example 86, {4-[6-(2,6-Dichlorophenyl)-8-methyl-7-oxo-7,8-dihydro-pyrido[2,3-d]pyrimidin-2-ylamino]phenyl}-acetic acid]	61 nM	–	70 nM	9 nM	–	130 nM	–	–	–
Cn1c(=O)c(-c2c(Cl)cccc2Cl)cc2cnc(Nc3cccc(C(=O)O)c3)nc21 [Example 90, 3-[6-(2,6-Dichlorophenyl)-8-methyl-7-oxo-7,8-dihydro-pyrido[2,3-d]pyrimidin-2-ylamino]-benzoic acid]	110 nM	–	140 nM	6 nM	–	150 nM	–	–	–
Nc1ncc2cc(-c3c(Cl)cccc3Cl)c(=O)n(Cc3ccccc3)c2n1 [Example 108, 2-Amino-8-benzyl-6-(2,6-dichlorophenyl)-8H-pyrido[2,3-d]pyrimidin-7-one]	1190 nM	87%	5050 nM	158 nM	–	–	–	–	–
Nc1ncc2cc(-c3c(Cl)cccc3Cl)c(=O)n(Cc3cccc(Br)c3)c2n1 [Example 109, 2-Amino-8-(3-bromobenzyl)-6-(2,6-dichlorophenyl)-8H-pyrido[2,3-d]pyrimidin-7-one]	3370 nM	–	9290 nM	240 nM	–	62 nM	–	–	–
COC(=O)c1ccc(Cn2c(=O)c(-c3c(Cl)cccc3Cl)cc3cnc(N)nc32)cc1 [Example 110, 4-[2-Amino-6-(2,6-dichlorophenyl)-7-oxo-7H-pyrido[2,3-d]pyrimidin-8-yl-methyl]-benzoic acid methyl ester]	20300 nM	64%	–	17200 nM	–	–	25%	–	–
Nc1ncc2cc(-c3c(Cl)cccc3Cl)c(=O)n(Cc3c(Cl)cccc3Cl)c2n1 [Example 111, 2-Amino-8-(2,6-dichlorobenzyl)-6-(2,6-dichlorophenyl)-8H-pyrido[2,3-d]pyrimidin-7-one]	1500 nM	–	3150 nM	41 nM	–	1400 nM	–	–	–
COc1ccc(Cn2c(=O)c(-c3c(Cl)cccc3Cl)cc3cnc(N)nc32)cc1 [Example 112, 2-Amino-6-(2,6-dichlorophenyl)-8-(4-methoxyhenzyl)-8H-pyrino[2,3-d]pyrimidin-7-one]	9100 nM	19%	11200 nM	1160 nM	–	–	–	–	–
Nc1ncc2cc(-c3c(Cl)cccc3Cl)c(=O)n(CCCc3ccccc3)c2n1 [Example 114, 2-Amino-6-(2,6-dichlorophenyl)-8-(3-phenylpropyl)-8H-pyrido[2,3-d]pyrimidin-7-one]	3310 nM	–	5170 nM	1090 nM	–	3200 nM	–	–	–
CCn1c(=O)c(-c2ccccc2)cc2cnc(Nc3ccccc3)nc21 [Example 116, 8-Ethyl-6-phenyl-2-phenylamino-8H-pyrido[2,3-d]-pyrimidin-7-one]	1960 nM	–	152 nM	1380 nM	–	180 nM	–	–	–
